Experimental findings from PubChem BioAssay AID330 (DTP/NCI, 2004) are described below.

For this test, the system named is P388 leukemia ip, CD2F1 mice, survival T/C. In words: NCI In Vivo Anticancer Drug Screen. Data for tumor model P388 Leukemia (intraperitoneal) in CD2F1 (CDF1) mice. Particulars: endpoint: median survival time, higher = longer survival. Put shortly: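 Mice carrying the transplanted tumor received test compound or vehicle. Survival was recorded in each group, and the value is the treated-group measurement divided by that of the vehicle-treated control group.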

Toxic doses and inconclusive results are not listed.

`C[n+]1c(-c2cccc(OCCCCCCCCOc3cccc(-c4c5cc(N)ccc5c5ccc(N)cc5[n+]4C)c3)c2)c2cc(N)ccc2c2ccc(N)cc21`: the T/C reads like this: (dose: 0.09 mg/kg/injection, schedule: Q01DX009 (ip), vehicle: water) 163 % of control; (dose: 0.19 mg/kg/injection, schedule: Q01DX009 (ip), vehicle: water) 154 % of control; (dose: 0.38 mg/kg/injection, schedule: Q01DX009 (ip), vehicle: water) 151 % of control; (dose: 0.39 mg/kg/injection, schedule: Q01DX009 (ip), vehicle: water) 170 % of control; (dose: 0.75 mg/kg/injection, schedule: Q01DX009 (ip), vehicle: water) 150 % of control; (dose: 0.78 mg/kg/injection, schedule: Q01DX009 (ip), vehicle: water) 179 % of control. Also, the T/C runs as follows: (dose: 1.5 mg/kg/injection, schedule: Q01DX009 (ip), vehicle: water) 91 % of control; (dose: 1.56 mg/kg/injection, schedule: Q01DX009 (ip), vehicle: water) 213 % of control.
On to `c1ccc(-c2ccc[n+](C[n+]3cccc(-c4ccccn4)c3)c2)nc1`, for which the T/C is 109 % of control (dose: 60.0 mg/kg/injection, schedule: Q01DX005 (ip), vehicle: saline); 104 % of control (dose: 120.0 mg/kg/injection, schedule: Q01DX005 (ip), vehicle: saline); 106 % of control (dose: 240.0 mg/kg/injection, schedule: Q01DX005 (ip), vehicle: saline).
For the compound `O=C(OC1(c2nccc3ccccc23)CCN(Cc2ccccc2)CC1)c1ccccc1`, the T/C runs as follows: (dose: 12.5 mg/kg/injection, schedule: Q01DX009 (ip), vehicle: saline) 100 % of control; (dose: 25.0 mg/kg/injection, schedule: Q01DX009 (ip), vehicle: saline) 101 % of control; (dose: 50.0 mg/kg/injection, schedule: Q01DX009 (ip), vehicle: saline with Tween-80) 93 % of control; (dose: 50.0 mg/kg/injection, schedule: Q01DX009 (ip), vehicle: saline) 97 % of control.
As for `CC12CCC/C(=N\NC(N)=S)C1C(=O)NC(=O)C2` (configuration not stated), the T/C is 99 % of control (dose: 50.0 mg/kg/injection, schedule: Q01DX005 (ip), vehicle: saline with Tween-80); 96 % of control (dose: 100.0 mg/kg/injection, schedule: Q01DX005 (ip), vehicle: saline with Tween-80); 97 % of control (dose: 200.0 mg/kg/injection, schedule: Q01DX005 (ip), vehicle: saline with Tween-80).
As to `CCCCNC1CC(OC2CC(O)(C(C)=O)Cc3c(O)c4c(c(O)c32)C(=O)c2c(OC)cccc2C4=O)OC(C)C1O` (configuration not stated), the T/C runs as follows: (dose: 2.0 mg/kg/injection, schedule: Q01DX009 (ip), vehicle: water) 102 % of control; (dose: 4.0 mg/kg/injection, schedule: Q01DX009 (ip), vehicle: water) 100 % of control; (dose: 8.0 mg/kg/injection, schedule: Q01DX009 (ip), vehicle: water) 118 % of control; (dose: 16.0 mg/kg/injection, schedule: Q01DX009 (ip), vehicle: water) 118 % of control.
